Measurements as given in US7374901B2, “Method of analyzing coenzyme Q-10 and two-electron reduction product thereof and analysis system” (Shiseido Company Ltd., priority 2002, dated 2008).

Assays:
[1] = Storage stability of methanol/hexane extraction liquid, conventional pretreatment (FIG. 3); assay type: physicochemical; details: various storage temperatures (FIG. 3)
Experimental: In this case, since the measurement is influenced by a water-soluble antioxidation substance in the specimen, such as vitamin C and uric acid, etc., a pretreatment is performed for subjecting the specimen to an extraction treatment with methanol/hexane so as to distribute the water-soluble antioxidation substance into a methanol phase and the coenzyme Q-10, etc., into a hexane phase.
It is therefore necessary to perform analysis immediately after the extraction of the specimen. […] Herein, each temperature indicates a storage temperature of the hexane extraction liquid in FIG. 3.

[2] = Storage stability of isopropyl alcohol extracted liquid from human blood plasma (FIG. 5); assay type: physicochemical; details: isopropyl alcohol extract of human blood plasma, stored at around 4° C., even after at least 11 hours
Experimental: 50 μl of human blood plasma as a specimen is sampled (S-1 in FIG. 4), 950 μl of isopropyl alcohol is added into it (S-2 in FIG. 4), and then they are mixed sufficiently. Subsequently, they are subjected to a centrifugal separator at a rotational speed of 12,000 rpm for 3 minutes and at a temperature of 4° C. Thus, coenzyme Q-10 and a 2-electron reduced form thereof are extracted from the specimen into an isopropyl alcohol phase (S-3 in FIG. 4).
When an extracted liquid into which the coenzyme Q-10, etc., has been extracted is stored at a temperature around 4° C. […] Thus, the alteration of a stored analytical sample can be prevented. Additionally, the longitudinal axis in regard to coenzyme Q-10 in FIG. 5(b) represents the ratio (molar-ratio) of the coenzyme Q-10 occupied in the total quantity of the coenzyme Q-10 and the 2-electron reduced form thereof.

Structure (SMILES)	stability / oxidation in the hexane extraction liquid after pretreatment until injection into HPLC [1]	oxidation of the 2-electron reduced form during storage of the extracted liquid [2]
COc1c(O)c(C)c(C/C=C(\C)CC/C=C(\C)CC/C=C(\C)CC/C=C(\C)CC/C=C(\C)CC/C=C(\C)CC/C=C(\C)CC/C=C(\C)CC/C=C(\C)CCC=C(C)C)c(O)c1OC [2-electron reduced form of coenzyme Q-10]	oxidized at a substantial rate	rarely oxidized
COC1=C(OC)C(=O)C(C/C=C(\C)CC/C=C(\C)CC/C=C(\C)CC/C=C(\C)CC/C=C(\C)CC/C=C(\C)CC/C=C(\C)CC/C=C(\C)CC/C=C(\C)CCC=C(C)C)=C(C)C1=O [coenzyme Q-10, 2,3-dimethoxy-5-methyl-6-polyprenyl-1,4-benzoquinone]	chemically unstable	–
